The values below come from publication PMC11671014 (PLOS Pathogens, 2024).

One may read the IC50 as the concentration that gives 50% inhibition.

For assay [1], the system named is Cam3.II^rev parasite cultures, trophozoite (25–30 h.p.i.) stage. Description: 6-h pulse exposure of synchronized trophozoites, SYBR Green I growth inhibition in next cycle. Type of assay: cell-based. Particulars: Plasmodium falciparum, read-out: P. falciparum 6-h Trophozoite Stage IC50 (Cam3.II). How it is done: Assessment of the killing activity of ML901 in pulsed exposure assays was performed using a modification of a previously described procedure. Briefly, cultures of Cam3.II^rev trophozoites (1.5% final hematocrit; 1.4% final parasitemia) were pre-synchronized to a 5-h window at trophozoite or schizont stage. Compounds were serially diluted in complete medium in v-bottomed microplates. Parasites were exposed to ML901 for 3 h, 6 h, 9 h or 24 h before washing 5 times with 200 μl of complete medium, then returned to culture conditions. For the no wash samples, ML901 was left in the culture until the assay point. Growth inhibition was assessed in the second cycle by labelling with the DNA-binding dye, SYBR Green I. Quantification of total DNA level reflects cytostatic effects as well as cytocidal effects. Old media (140 μl) was firstly replaced with fresh media, followed by the addition of lysis buffer (20 mM Tris, pH 7.5, 5 mM EDTA, 0.008% w/v saponin, 0.08% v/v Triton X-100) containing SYBR Green I. Plates were incubated at room temperature for 2 h and fluorescence readings were taken using a microplate reader (BMG LABTECH).

Assay [2] deals with T1, NAE (NEDD8-activating enzyme) (Homo sapiens, UniProt Q8TBC4).
T1 sequence (Q8TBC4 1-463): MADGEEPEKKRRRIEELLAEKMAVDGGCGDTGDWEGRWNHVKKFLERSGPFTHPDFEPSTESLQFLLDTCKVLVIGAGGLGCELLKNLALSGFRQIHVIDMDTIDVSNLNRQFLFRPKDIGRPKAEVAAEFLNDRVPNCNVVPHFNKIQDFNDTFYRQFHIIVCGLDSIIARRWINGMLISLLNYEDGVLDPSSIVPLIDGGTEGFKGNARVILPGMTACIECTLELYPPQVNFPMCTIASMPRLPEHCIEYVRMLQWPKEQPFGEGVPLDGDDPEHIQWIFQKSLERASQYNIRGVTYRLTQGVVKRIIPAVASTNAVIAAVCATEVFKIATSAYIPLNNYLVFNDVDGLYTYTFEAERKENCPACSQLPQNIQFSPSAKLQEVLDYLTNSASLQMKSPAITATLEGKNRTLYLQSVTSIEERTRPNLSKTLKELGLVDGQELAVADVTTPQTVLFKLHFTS
T1 sequence (Q13564 1-534 partner): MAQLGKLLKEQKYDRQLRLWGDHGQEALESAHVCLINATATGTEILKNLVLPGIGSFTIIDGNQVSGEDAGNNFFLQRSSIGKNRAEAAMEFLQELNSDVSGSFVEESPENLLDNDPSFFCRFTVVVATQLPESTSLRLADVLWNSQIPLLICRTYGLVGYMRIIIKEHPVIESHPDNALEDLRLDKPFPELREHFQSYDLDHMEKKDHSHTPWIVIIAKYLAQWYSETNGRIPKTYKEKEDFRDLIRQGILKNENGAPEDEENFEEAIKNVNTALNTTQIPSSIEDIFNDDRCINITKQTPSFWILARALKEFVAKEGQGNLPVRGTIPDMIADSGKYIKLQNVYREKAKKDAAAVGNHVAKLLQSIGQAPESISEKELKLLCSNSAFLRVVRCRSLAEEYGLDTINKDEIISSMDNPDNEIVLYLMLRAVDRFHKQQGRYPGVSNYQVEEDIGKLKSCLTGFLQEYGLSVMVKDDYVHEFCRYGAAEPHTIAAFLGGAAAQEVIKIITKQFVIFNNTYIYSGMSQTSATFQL
The assay is described as follows: NAE E1-E2 transthiolation HTRF assay. Type of assay: biochemical. The source says: An Homogeneous Time-Resolved Fluorescence (HTRF) enzyme assay was employed to evaluate compound activity against ATG7 as previously described. In this assay, a Flag-tagged ATG8 homolog (GABA type A receptor-associated protein; GABARAP) is activated by ATG7 and then transthiolated to a GST-tagged E2 (ATG3). The product of the enzyme reaction, Flag-GABARAP-ATG3-GST, is quantified by measuring FRET between Europium-Cryptate labelled monoclonal anti-Flag M2 (FLAG M2-Eu cryptate; Revvity, Cat# 61FG2KLB) and […] (Anti-GST IgG conjugated to SureLight-Allophycocyanin) (Revvity, Cat# AD0059G)). The activation and transthiolation of ubiquitin by UAE, activation and transthiolation of NEDD8 by NAE and activation and transthiolation of SUMO by SAE were all assayed in a similar fashion with appropriately tagged ubiquitin-like proteins and E2 conjugating enzymes as described.
(In general: In TR-FRET formats the signal depends on donor and acceptor labels being close together.)

The target of assay [3] is T2, PfTyrRS (Plasmodium falciparum, UniProt Q8IAR7). The assay is described as follows: ATP consumption by PfTyrRS (Kinase Glo). Type of assay: biochemical. Particulars: PfTyrRS 25 nM, ATP 10 μM, tyrosine 200 μM, cognate tRNA^Tyr 4.8 μM, 37°C 1 h; read-out: Inhibition of PfTyrRS (Kinase Glo) IC50. As for the experimental part:
Consumption of ATP was measured using a luciferase-based assay as per the manufacturer’s instructions (Kinase-Glo Luminescent Kinase Assay, Promega).
(In general: Kinase-Glo reads ATP consumption through a luciferase reaction.)

For assay [4], the target named is T2, PfTyrRS. The assay is described as follows: Differential scanning fluorimetry (DSF) of PfTyrRS. Type of assay: binding. Particulars: for ΔTm at 50 µM: 50 μM sulfamate, tyrosine, PftRNA^Tyr, 37°C 2 h, read-out: PfTyrRS binding (DSF) Delta Tm; for ΔTm at 50 µM / PfTyrRS Tm: ATP; for Kd: estimated from DSF with an irreversible thermal unfolding model, read-out: PfTyrRS binding (DSF) apparent KD; for PfTyrRS Tm: with sulfamate, tyrosine and tRNA, apo 49.9 ± 0.6. As for the experimental part:
The effect on ML471 and analogues on the thermal stability of TyrRS enzymes was assayed as previously described. […] SYPRO Orange (Sigma-Aldrich; 5,000X concentrate in DMSO) was added to the reaction mixture at a final concentration of 5X. 25 μL of the sample was added into each well of a 96-well qPCR plate (Applied Biosystems). The plate was sealed and analysed using StepOnePlus Real-Time PCR system (Applied Biosystems). The samples were heated from 20°C to 90°C with a 1% continuous gradient. The thermal unfolding curve was plotted as the first derivative curve of the raw fluorescence values. The melting temperature (Tm), defined as the peak of the first derivative curve, was used to assess the thermal stability of protein-ligand complexes.

Values joined by “and” are separate entries in the source; they are usually repeats but may differ in a detail not shown here. Identical values can stand only once.

T2 sequence (Q8IAR7 entry or part of it): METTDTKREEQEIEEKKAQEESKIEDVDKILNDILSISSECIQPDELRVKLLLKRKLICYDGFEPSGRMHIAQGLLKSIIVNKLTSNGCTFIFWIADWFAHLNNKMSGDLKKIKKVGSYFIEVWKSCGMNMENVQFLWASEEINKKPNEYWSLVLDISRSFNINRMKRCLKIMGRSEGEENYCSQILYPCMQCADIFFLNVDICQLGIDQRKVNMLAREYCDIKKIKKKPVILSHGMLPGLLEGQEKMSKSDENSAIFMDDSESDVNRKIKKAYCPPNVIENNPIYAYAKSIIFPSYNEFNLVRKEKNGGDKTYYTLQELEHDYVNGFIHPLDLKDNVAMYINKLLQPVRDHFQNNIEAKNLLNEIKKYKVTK

Take `Nc1ncnc2c1c(C(F)(F)F)nn2[C@@H]1O[C@H](COS(N)(=O)=O)[C@@H](O)[C@H]1O` [ML107]: the IC50 in assay [1] stood at 0.15 ± 0.033 µM. Further, in assay [2], the IC50 was determined as 75.3 ± 0.8 µM. In assay [3], the IC50 was 24 ± 5 µM. Further, in assay [4], the ΔTm at 50 µM is 13.6 ± 0.6 °C, the Kd was 0.0014 µM and the “PfTyrRS Tm” value was found to be 63.5 ± 0.4 °C.
With `Nc1ncnc2c1c(Oc1ccccc1)nn2[C@@H]1O[C@H](COS(N)(=O)=O)[C@@H](O)[C@H]1O` [ML470], the IC50 in assay [2] was over 100 µM. Besides, the IC50 in assay [3] was 41 ± 23 µM. Besides, in assay [4], the ΔTm at 50 µM stood at 15.7 ± 0.3 °C, the Kd is 0.0006 µM and the “PfTyrRS Tm” value came out at 65.5 ± 0.6 °C.
In the case of `CC(C)c1nn([C@@H]2O[C@H](COS(N)(=O)=O)[C@@H](O)[C@H]2O)c2ncnc(N)c12` [ML471, ((2R,3S,4R,5R)-5-(4-amino-3-isopropyl-1H-pyrazolo[3,4-d]pyrimidin-1-yl)-3,4-dihydroxytetrahydrofuran-2-yl)methyl sulfamate], the IC50 in assay [1] came to 0.0291 ± 0.003 µM. Also, in assay [2], the IC50 is over 100 µM and the “activity against NAE (in words)” value is recorded as “no or very little activity”. The IC50 in assay [3] turned out to be 1.4 ± 0.2 µM. For the same compound, in assay [4], the ΔTm at 50 µM turned out to be 18 ± 0.1 °C, the Kd is 0.0002 µM and the “PfTyrRS Tm” value worked out at 67.9 ± 0.4 °C.
In assay [2], `CCOc1nn([C@@H]2O[C@H](COS(N)(=O)=O)[C@@H](O)[C@H]2O)c2ncnc(N)c12` [ML676] gave an IC50 of 66.6 ± 1.1 µM. Moreover, in assay [4], the ΔTm at 50 µM amounted to 15.69 ± 0.01 °C, the Kd is 0.0006 µM and the “PfTyrRS Tm” value is 65.5 ± 0.6 °C.
`CCc1nn([C@@H]2O[C@H](COS(N)(=O)=O)[C@@H](O)[C@H]2O)c2ncnc(N)c12` [ML681] gave an IC50 in assay [2] of 35.3 ± 0.8 µM. For the same compound, the IC50 in assay [3] came out at 23 ± 8 µM. In addition, in assay [4], the ΔTm at 50 µM was found to be 16.4 ± 0.1 °C, the Kd is 0.0004 µM and the “PfTyrRS Tm” value stood at 66.3 ± 0.5 °C.
With `CC(C)Oc1nn([C@@H]2O[C@H](COS(N)(=O)=O)[C@@H](O)[C@H]2O)c2ncnc(N)c12` [ML723], the IC50 in assay [1] worked out at 0.22 ± 0.031 µM. This compound also came in with an IC50 in assay [2] of over 100 µM. In addition, in assay [3], the IC50 worked out at 14 ± 5 µM. Also, in assay [4], the ΔTm at 50 µM worked out at 16.2 ± 0.1 °C, the Kd was 0.0005 µM and the “PfTyrRS Tm” value came to 66.1 ± 0.7 °C.
`Nc1ncnc2c1c(OC(F)F)nn2[C@@H]1O[C@H](COS(N)(=O)=O)[C@@H](O)[C@H]1O` [ML901]: the half-maximal inhibitory concentration (IC50) in assay [1] was found to be 0.135 ± 0.014 µM. This compound also gave an IC50 in assay [2] of 28 ± 0.6 µM. Further, the IC50 in assay [3] was 13.4 µM and 13 µM. In assay [4], the ΔTm at 50 µM came out at 15.2 ± 0.1 °C, the Kd was 0.0007 µM and the “PfTyrRS Tm” value is 65.1 ± 0.5 °C.
